Experiments:
human GPR84 receptor = biological target: T1, human GPR84 receptor (Homo sapiens, UniProt Q9NQS5); assay: Gαi biosensor BRET assay (GPR84 antagonism vs agonist ZQ-16); assay type: cell-based; conditions: HEK293 cells, 200 nmol/L agonist ZQ-16; for inhibition at 10 µM: tested at 10 μM (concentration code D); for IC50: Gαi biosensor BRET assay; for inhibition at 2 µM: tested at 2 μM (concentration code A)
T1 construct: host or cells: HEK293, transiently transfected
Outline: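 HEK293 cells transiently expressing GPR84, Gαi2-Rluc8, GFP10-Gγ2 and Gβ1 were pre-incubated with compounds 5 min at 37 °C in Tyrode's buffer pH 7.5, then stimulated with 200 nmol/L ZQ-16 for 5 min at room temperature. BRET2 (acceptor/donor ratio) read after 5 μmol/L coelenterazine 400A, background- and vehicle-corrected.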

[1] = system: dextran sodium sulfate-induced chronic inflammatory bowel disease; conditions: mouse; once-daily doses of 3 and 10 mg/kg; cited from earlier work

T1 sequence (Q9NQS5 whole entry): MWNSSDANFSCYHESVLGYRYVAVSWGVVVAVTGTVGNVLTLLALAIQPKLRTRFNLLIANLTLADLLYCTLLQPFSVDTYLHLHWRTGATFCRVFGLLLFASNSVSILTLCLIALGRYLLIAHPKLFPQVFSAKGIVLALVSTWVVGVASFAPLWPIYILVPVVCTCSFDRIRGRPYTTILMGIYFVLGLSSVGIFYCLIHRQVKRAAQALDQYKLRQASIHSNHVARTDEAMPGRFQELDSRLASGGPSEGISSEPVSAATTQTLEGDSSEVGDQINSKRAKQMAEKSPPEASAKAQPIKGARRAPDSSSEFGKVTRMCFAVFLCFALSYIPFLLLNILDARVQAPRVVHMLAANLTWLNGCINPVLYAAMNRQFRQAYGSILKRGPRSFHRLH

| inhibition at 10 µM (human GPR84 receptor) [%] | IC50 (human GPR84 receptor) [nM] | inhibition at 2 µM (human GPR84 receptor) [%] | SMILES | other results |
| --- | --- | --- | --- | --- |
| > 75 | 300 to 1000 |  | Cc1cc(OCC(=O)N2CC(C)(C)C2)cc(=O)n1[C@H](C)c1ccc(C#CC2CC2)cc1 [Compound I-342] |  |
|  | 1000 to 3000 | > 75 | Cc1cc(OCC(=O)N2CC(C)(C#N)C2)cc(=O)n1[C@H](C)c1ccc(C#CC2CC2)cc1 [Compound I-343] |  |
|  | ≤ 300 | > 75 | Cc1cc(OCC(=O)N2CC3(CC3)C2)cc(=O)n1[C@H](C)c1ccc(C#CC2CC2)cc1 [Compound I-344] |  |
| > 75 | ≤ 300 |  | Cc1cc(OCC(=O)N2CC(C)(O)C2)cc(=O)n1[C@H](C)c1ccc(C#CC2CC2)cc1 [Compound I-345] |  |
| 25 to 50 |  |  | Cc1cc(OCC(=O)NCCN2CCCC2)cc(=O)n1[C@H](C)c1ccc(C#CC2CC2)cc1 [Compound I-346] |  |
| > 75 | 300 to 1000 |  | Cc1cc(OCC(=O)N(C(C)C)C(C)C)cc(=O)n1[C@H](C)c1ccc(C#CC2CC2)cc1 [Compound I-347] |  |
| > 75 |  |  | Cc1cc(OCC(=O)N2CC(C)OC(C)C2)cc(=O)n1[C@H](C)c1ccc(C#CC2CC2)cc1 (stereo partly shown) [Compound I-348] |  |
| > 75 |  |  | COCCNC(=O)COc1cc(C)n([C@H](C)c2ccc(C#CC3CC3)cc2)c(=O)c1 [Compound I-349] |  |
|  |  | > 75 | Cc1cc(OCC(=O)N(C)CC(=O)O)cc(=O)n1[C@H](C)c1ccc(C#CC2CC2)cc1 [Compound I-350] |  |

The remaining lines, values behind:

| SMILES | inhibition at 10 µM (human GPR84 receptor) [%] | IC50 (human GPR84 receptor) [nM] | inhibition at 2 µM (human GPR84 receptor) [%] | other results |
| --- | --- | --- | --- | --- |
| Cc1cc(OCc2ncn[nH]2)cc(=O)n1[C@H](C)c1ccc(C#CC2CC2)cc1 [Compound I-328] | > 75 |  |  |  |
| Cc1cc(OCc2ncnn2C)cc(=O)n1[C@H](C)c1ccc(C#CC2CC2)cc1 [Compound I-329] |  | ≤ 300 | > 75 |  |
| Cc1cc(OCc2nncn2C)cc(=O)n1[C@H](C)c1ccc(C#CC2CC2)cc1 [Compound I-330] |  | ≤ 300 | > 75 |  |
| Cc1cc(OCc2nnnn2C2CC2)cc(=O)n1[C@H](C)c1ccc(C#CC2CC2)cc1 [Compound I-331] |  |  | > 75 |  |
| Cc1cc(OCC(=O)N2CC[C@H](S(=O)(=O)N(C)C)C2)cc(=O)n1[C@H](C)c1ccc(C#CC2CC2)cc1 [Compound I-333] | > 75 | 1000 to 3000 |  |  |
| Cc1cc(OCC(=O)N2CC[C@@H](S(=O)(=O)N(C)C)C2)cc(=O)n1[C@H](C)c1ccc(C#CC2CC2)cc1 [Compound I-334] |  | 300 to 1000 | > 75 |  |
| Cc1cc(OCC(=O)N2CC[C@H](NS(C)(=O)=O)C2)cc(=O)n1[C@H](C)c1ccc(C#CC2CC2)cc1 [Compound I-335] |  |  | > 75 |  |
| Cc1cc(OCC(=O)N2CC[C@@H](NS(C)(=O)=O)C2)cc(=O)n1[C@H](C)c1ccc(C#CC2CC2)cc1 [Compound I-336] |  |  | > 75 |  |
| Cc1cc(OCC(=O)N2CC[C@H](N(C)S(C)(=O)=O)C2)cc(=O)n1[C@H](C)c1ccc(C#CC2CC2)cc1 [Compound I-337] | > 75 |  |  |  |
| Cc1cc(OCC(=O)N2CC[C@@H](N(C)S(C)(=O)=O)C2)cc(=O)n1[C@H](C)c1ccc(C#CC2CC2)cc1 [Compound I-338] | > 75 |  |  |  |
| Cc1cc(/C=C2\SC(=O)NC2=O)cc(=O)n1[C@H](C)c1ccc(C#CC2CC2)cc1 [Compound I-339] | > 75 |  |  |  |
| Cc1cc(COCC(=O)N(C)C)cc(=O)n1[C@H](C)c1ccc(C#CC2CC2)cc1 [Compound I-340] | 50 to 75 |  |  |  |
| Cc1cc(OCC(=O)N2CCCCC2)cc(=O)n1[C@H](C)c1ccc(C#CC2CC2)cc1 [Compound I-341] |  | ≤ 300 | > 75 |  |
| O=c1nc(OC[C@@H]2COCCO2)cc2n1CCc1cc(C#CC3CC3)ccc1-2 [GLPG1205] |  |  |  | disease activity index score [1]: reduced; neutrophil infiltration [1]: reduced |
